From PMC5218480 (PLoS ONE, 2017)

Tested on: MV-4-11 cells
Assay: Gene expression microarray analysis (Affymetrix PrimeView) and GSEA
Type: cell-based, human
Design: RFU PODN (11730768_x_at) / Fold change /veh PODN (11730768_x_at) / RFU LINC00158 (11744669_a_at) / Fold change /veh LINC00158 (11744669_a_at) / RFU DUSP10 (11751237_a_at) / Fold change /veh DUSP10 (11751237_a_at) / RFU ID3 (11757404_x_at) / Fold change /veh ID3 (11757404_x_at) / RFU PLEKHG5 (11737974_s_at) / Fold change /veh PLEKHG5 (11737974_s_at) / RFU LRRC4B (11730491_at) / Fold change /veh LRRC4B (11730491_at) / RFU GIMAP4 (11747438_a_at) / Fold change /veh GIMAP4 (11747438_a_at) / RFU KRT8 (11758183_x_at) / Fold change /veh KRT8 (11758183_x_at) / RFU CNN1 (11734310_a_at) / Fold change /veh CNN1 (11734310_a_at) / RFU VPS37D (11726825_at) / Fold change /veh VPS37D (11726825_at) / RFU C10orf10 (11716522_x_at) / Fold change /veh C10orf10 (11716522_x_at) / RFU KIR2DL2 /// KIR2DL4 /// KIR2DL5A /// KIR2DL5B /// KIR2DS1 /// KIR2DS2 /// KIR2DS3 /// KIR2DS4 /// KIR3DL3 /// KIR3DL3 /// KIR3DS1 (11738374_at) / Fold change /veh KIR2DL2 /// KIR2DL4 /// KIR2DL5A /// KIR2DL5B /// KIR2DS1 /// KIR2DS2 /// KIR2DS3 /// KIR2DS4 /// KIR3DL3 /// KIR3DL3 /// KIR3DS1 (11738374_at) / RFU C1QL1 (11718748_at) / Fold change /veh C1QL1 (11718748_at) / RFU TMPRSS4 (11747572_a_at) / Fold change /veh TMPRSS4 (11747572_a_at) / RFU HAMP (11756126_x_at) / Fold change /veh HAMP (11756126_x_at) / RFU RNFT2 (11725882_a_at) / Fold change /veh RNFT2 (11725882_a_at) / RFU NR4A2 (11747474_a_at) / Fold change /veh NR4A2 (11747474_a_at) / RFU ABCC12 (11746883_a_at) / Fold change /veh ABCC12 (11746883_a_at) / RFU TMEM136 (11760407_x_at) / Fold change /veh TMEM136 (11760407_x_at) / RFU CLDN22 /// WWC2 (11732394_at) / Fold change /veh CLDN22 /// WWC2 (11732394_at) / RFU HLA-DPB1 (11760878_x_at) / Fold change /veh HLA-DPB1 (11760878_x_at) / RFU SPINT1 (11716480_a_at) / Fold change /veh SPINT1 (11716480_a_at) / RFU GAP43 (11754022_s_at) / Fold change /veh GAP43 (11754022_s_at) / RFU A4GNT (11735810_at) / Fold change /veh A4GNT (11735810_at) / RFU PRB3 (11715151_x_at) / Fold change /veh PRB3 (11715151_x_at) / RFU TUBB4B (11761932_at) / Fold change /veh TUBB4B (11761932_at) / RFU CAPN14 (11732068_a_at) / Fold change /veh CAPN14 (11732068_a_at) / RFU TMCC2 (11721928_a_at) / Fold change /veh TMCC2 (11721928_a_at) / RFU IRGQ (11745062_a_at) / Fold change /veh IRGQ (11745062_a_at) / RFU FAM174B (11720279_a_at) / Fold change /veh FAM174B (11720279_a_at) / RFU TMPRSS4 (11748680_a_at) / Fold change /veh TMPRSS4 (11748680_a_at) / RFU FAM212B (11763350_a_at) / Fold change /veh FAM212B (11763350_a_at) / RFU PLEKHG5 (11743358_a_at) / Fold change /veh PLEKHG5 (11743358_a_at) / RFU ZSCAN30 (11745921_a_at) / Fold change /veh ZSCAN30 (11745921_a_at) / RFU CMKLR1 (11741424_a_at) / Fold change /veh CMKLR1 (11741424_a_at) / RFU LOC101060620 /// MAPK8IP1 (11723275_at) / Fold change /veh LOC101060620 /// MAPK8IP1 (11723275_at) / RFU SPTSSB (11747773_x_at) / Fold change /veh SPTSSB (11747773_x_at) / RFU PRSS12 (11739890_at) / Fold change /veh PRSS12 (11739890_at) / RFU BIN1 (11741810_x_at) / Fold change /veh BIN1 (11741810_x_at) / RFU WNT11 (11732464_a_at) / Fold change /veh WNT11 (11732464_a_at) / RFU C10orf10 (11716521_a_at) / Fold change /veh C10orf10 (11716521_a_at) / RFU C5orf56 (11738089_at) / Fold change /veh C5orf56 (11738089_at) / RFU CYB561 (11721691_x_at) / Fold change /veh CYB561 (11721691_x_at) / RFU ANKRD19P (11752326_a_at) / Fold change /veh ANKRD19P (11752326_a_at) / RFU OR2T12 /// OR2T33 /// OR2T8 (11738714_s_at) / Fold change /veh OR2T12 /// OR2T33 /// OR2T8 (11738714_s_at) / RFU VCAN (11748164_a_at) / Fold change /veh VCAN (11748164_a_at) / RFU JSRP1 (11732532_at) / Fold change /veh JSRP1 (11732532_at) / RFU KRTAP10-11 (11738290_x_at) / Fold change /veh KRTAP10-11 (11738290_x_at) / RFU MYO3A (11730013_a_at) / Fold change /veh MYO3A (11730013_a_at) / RFU EBF3 (11725865_a_at) / Fold change /veh EBF3 (11725865_a_at) / RFU CAMK2N1 (11719241_x_at) / Fold change /veh CAMK2N1 (11719241_x_at) / RFU C5orf56 (11738088_a_at) / Fold change /veh C5orf56 (11738088_a_at) / RFU OLFML3 (11715873_a_at) / Fold change /veh OLFML3 (11715873_a_at) / RFU LOC100653217 /// NTM (11731650_a_at) / Fold change /veh LOC100653217 /// NTM (11731650_a_at) / RFU MAPK11 (11762145_a_at) / Fold change /veh MAPK11 (11762145_a_at) / RFU FIZ1 (11724087_x_at) / Fold change /veh FIZ1 (11724087_x_at) / RFU OASL (11726364_x_at) / Fold change /veh OASL (11726364_x_at) / RFU SOX15 (11748057_x_at) / Fold change /veh SOX15 (11748057_x_at) / RFU CD79A (11719716_a_at) / Fold change /veh CD79A (11719716_a_at) / RFU HIST1H1D (11736915_at) / Fold change /veh HIST1H1D (11736915_at) / RFU CASKIN2 (11723855_a_at) / Fold change /veh CASKIN2 (11723855_a_at) / RFU LOC730098 (11760151_x_at) / Fold change /veh LOC730098 (11760151_x_at) / RFU OR4N2 (11742367_at) / Fold change /veh OR4N2 (11742367_at) / RFU PRRT2 (11749266_a_at) / Fold change /veh PRRT2 (11749266_a_at) / RFU SNX32 (11753110_a_at) / Fold change /veh SNX32 (11753110_a_at) / RFU CDHR5 (11726645_a_at) / Fold change /veh CDHR5 (11726645_a_at) / RFU RCAN1 (11760418_a_at) / Fold change /veh RCAN1 (11760418_a_at) / RFU FAM167A (11723789_a_at) / Fold change /veh FAM167A (11723789_a_at) / RFU FAM26E (11764081_at) / Fold change /veh FAM26E (11764081_at) / RFU ISYNA1 (11749810_s_at) / Fold change /veh ISYNA1 (11749810_s_at) / RFU ACY1 (11761880_at) / Fold change /veh ACY1 (11761880_at) / RFU 11764098_at / Fold change /veh 11764098_at / RFU SAMD14 (11745864_x_at) / Fold change /veh SAMD14 (11745864_x_at) / RFU NPB (11741838_a_at) / Fold change /veh NPB (11741838_a_at) / RFU TMPRSS6 (11731388_a_at) / Fold change /veh TMPRSS6 (11731388_a_at) / RFU KRTAP10-2 (11738614_at) / Fold change /veh KRTAP10-2 (11738614_at) / RFU ARHGAP8 /// PRR5-ARHGAP8 (11727945_x_at) / Fold change /veh ARHGAP8 /// PRR5-ARHGAP8 (11727945_x_at) / RFU KRTAP5-7 /// NADSYN1 (11734609_at) / Fold change /veh KRTAP5-7 /// NADSYN1 (11734609_at) / RFU RASL12 (11751679_a_at) / Fold change /veh RASL12 (11751679_a_at) / RFU CDKN2B (11736163_a_at) / Fold change /veh CDKN2B (11736163_a_at) / RFU PRF1 (11729649_at) / Fold change /veh PRF1 (11729649_at) / RFU, ZNF638 /// ZNF638-IT1 / Fold change vs veh, ZNF638 /// ZNF638-IT1 / RFU, PANK3 / Fold change vs veh, PANK3 / RFU, SH3YL1 / Fold change vs veh, SH3YL1 / RFU, ZEB2 / Fold change vs veh, ZEB2 / RFU, NRIP1 / Fold change vs veh, NRIP1 / RFU, PTTG1IP / Fold change vs veh, PTTG1IP / RFU, CAPN2 / Fold change vs veh, CAPN2 / RFU, MED14 / Fold change vs veh, MED14 / RFU, SNORA58 / Fold change vs veh, SNORA58 / RFU, C1orf63 / Fold change vs veh, C1orf63 / RFU, LRRFIP1 / Fold change vs veh, LRRFIP1 / RFU, NDUFAF7 / Fold change vs veh, NDUFAF7 / RFU, SLC12A2 / Fold change vs veh, SLC12A2 / RFU, IBTK / Fold change vs veh, IBTK / RFU, ESF1 / Fold change vs veh, ESF1 / Fold change vs veh, TMEM50B / RFU, TAOK1 / Fold change vs veh, TAOK1 / RFU, ACBD3 / Fold change vs veh, ACBD3 / RFU, TMA16 / Fold change vs veh, TMA16 / RFU, RWDD3 / Fold change vs veh, RWDD3 / RFU, BCAT1 / Fold change vs veh, BCAT1 / RFU, EDEM3 / Fold change vs veh, EDEM3 / RFU, TMEM33 / Fold change vs veh, TMEM33 / RFU, WDR75 / Fold change vs veh, WDR75 / RFU, AHCTF1 / Fold change vs veh, AHCTF1 / RFU, TFRC / Fold change vs veh, TFRC / RFU, ZDHHC17 / Fold change vs veh, ZDHHC17 / RFU, NOM1 / Fold change vs veh, NOM1 / RFU, ARL8B / Fold change vs veh, ARL8B / RFU, ZBTB11 / Fold change vs veh, ZBTB11 / RFU, TAMM41 / Fold change vs veh, TAMM41 / RFU, KIAA1704 /// LOC100996395 / Fold change vs veh, KIAA1704 /// LOC100996395 / RFU, ING1 / Fold change vs veh, ING1 / RFU, TRMT61B / Fold change vs veh, TRMT61B / RFU, FUBP3 / Fold change vs veh, FUBP3 / RFU, TP53 / Fold change vs veh, TP53 / RFU, TNKS2 / Fold change vs veh, TNKS2 / RFU, ZFP14 / Fold change vs veh, ZFP14 / RFU, ACTR2 / Fold change vs veh, ACTR2 / RFU, PPP3R1 / Fold change vs veh, PPP3R1 / RFU, PIK3R1 / Fold change vs veh, PIK3R1 / RFU, HNRNPA1 / Fold change vs veh, HNRNPA1 / RFU, RNF170 / Fold change vs veh, RNF170 / RFU, ZNF28 / Fold change vs veh, ZNF28 / RFU, RNGTT / Fold change vs veh, RNGTT / RFU, OGT / Fold change vs veh, OGT / RFU, BRD1 / Fold change vs veh, BRD1 / RFU, MARS / Fold change vs veh, MARS / RFU, ZNF655 / Fold change vs veh, ZNF655 / RFU, FAHD1 / Fold change vs veh, FAHD1 / RFU, BDP1 / Fold change vs veh, BDP1 / RFU, LRRCC1 / Fold change vs veh, LRRCC1 / RFU, ARID1A / Fold change vs veh, ARID1A / RFU, ZNF146 / Fold change vs veh, ZNF146 / RFU, ZNF330 / Fold change vs veh, ZNF330 / RFU, GPN3 / Fold change vs veh, GPN3 / RFU, C9orf123 / Fold change vs veh, C9orf123 / RFU, N4BP2L2 / Fold change vs veh, N4BP2L2 / RFU, ARFIP1 / Fold change vs veh, ARFIP1 / RFU, FAM179B / Fold change vs veh, FAM179B / RFU, BCL10 / Fold change vs veh, BCL10 / RFU, UHRF1BP1L / Fold change vs veh, UHRF1BP1L / RFU, BET1 / Fold change vs veh, BET1 / RFU, CNOT2 / Fold change vs veh, CNOT2 / RFU, ZNF268 / Fold change vs veh, ZNF268 / Fold change vs veh, ZNF507 / RFU, DGCR2 / Fold change vs veh, DGCR2 / RFU, WDSUB1 / Fold change vs veh, WDSUB1 / Fold change vs veh, HSP90B1 /// MIR3652 / RFU, ADSS / Fold change vs veh, ADSS / RFU, GK / Fold change vs veh, GK / RFU, ZNF148 / Fold change vs veh, ZNF148 / RFU, TAF9 / Fold change vs veh, TAF9 / RFU, SLC1A5 / Fold change vs veh, SLC1A5 / RFU, SLMO2 / Fold change vs veh, SLMO2 / RFU, ABCC4 / Fold change vs veh, ABCC4 / RFU, LOC101060439 /// RAP1B / Fold change vs veh, LOC101060439 /// RAP1B / RFU, RFX7 / Fold change vs veh, RFX7 / RFU, GTPBP10 / Fold change vs veh, GTPBP10 / RFU, CNEP1R1 / Fold change vs veh, CNEP1R1 / RFU, BIVM-ERCC5 /// ERCC5 / Fold change vs veh, BIVM-ERCC5 /// ERCC5 / RFU, ILF3 / Fold change vs veh, ILF3 / RFU 11762660_at / Fold change /veh 11762660_at / RFU VCAN (11757783_s_at) / Fold change /veh VCAN (11757783_s_at) / RFU DDX43 (11728927_at) / Fold change /veh DDX43 (11728927_at) / RFU KRT8 (11758188_x_at) / Fold change /veh KRT8 (11758188_x_at) / RFU NKD1 (11759106_at) / Fold change /veh NKD1 (11759106_at) / RFU SRD5A1 (11742802_a_at) / Fold change /veh SRD5A1 (11742802_a_at) / RFU TPSAB1 /// TPSB2 (11721975_s_at) / Fold change /veh TPSAB1 /// TPSB2 (11721975_s_at) / RFU GSTM3 (11746129_a_at) / Fold change /veh GSTM3 (11746129_a_at) / RFU IL23R (11737362_x_at) / Fold change /veh IL23R (11737362_x_at) / RFU TMEM51 (11727254_a_at) / Fold change /veh TMEM51 (11727254_a_at) / RFU PIWIL2 (11732686_x_at) / Fold change /veh PIWIL2 (11732686_x_at) / RFU ORM1 (11744905_x_at) / Fold change /veh ORM1 (11744905_x_at) / RFU CCDC152 (11743942_at) / Fold change /veh CCDC152 (11743942_at) / RFU ECM1 (11717891_a_at) / Fold change /veh ECM1 (11717891_a_at) / RFU IL23R (11748794_a_at) / Fold change /veh IL23R (11748794_a_at) / RFU TNFAIP8L3 (11732012_x_at) / Fold change /veh TNFAIP8L3 (11732012_x_at) / RFU MBOAT4 (11741988_at) / Fold change /veh MBOAT4 (11741988_at) / RFU 11764193_at / Fold change /veh 11764193_at / RFU TMEM53 (11763286_at) / Fold change /veh TMEM53 (11763286_at) / RFU MAGEB2 (11727129_at) / Fold change /veh MAGEB2 (11727129_at) / RFU TMEM200A (11744735_a_at) / Fold change /veh TMEM200A (11744735_a_at) / RFU CCDC152 (11751479_a_at) / Fold change /veh CCDC152 (11751479_a_at) / RFU FAM211A (11726209_a_at) / Fold change /veh FAM211A (11726209_a_at) / RFU RGS16 (11746705_a_at) / Fold change /veh RGS16 (11746705_a_at) / RFU VCAN (11755009_s_at) / Fold change /veh VCAN (11755009_s_at) / RFU RHOB (11743442_s_at) / Fold change /veh RHOB (11743442_s_at) / RFU RGS16 (11720943_a_at) / Fold change /veh RGS16 (11720943_a_at) / RFU RGS16 (11720944_at) / Fold change /veh RGS16 (11720944_at) / RFU, VPS4B / Fold change vs veh, VPS4B / RFU, CREB1 / Fold change vs veh, CREB1 / RFU, DNAJC13 / Fold change vs veh, DNAJC13 / RFU, GNAQ / Fold change vs veh, GNAQ / RFU, CDK5R1 / Fold change vs veh, CDK5R1 / RFU, ZRANB3 / Fold change vs veh, ZRANB3 / RFU, CUL4A / Fold change vs veh, CUL4A / RFU, CCNY / Fold change vs veh, CCNY / RFU, UFL1 / Fold change vs veh, UFL1 / RFU, COG3 / Fold change vs veh, COG3 / RFU, DIAPH2 / Fold change vs veh, DIAPH2 / RFU, SKA2 / Fold change vs veh, SKA2 / RFU, AFF3 / Fold change vs veh, AFF3 / RFU, LMF1 / Fold change vs veh, LMF1 / RFU, IPO11 / Fold change vs veh, IPO11 / RFU, DFFB / Fold change vs veh, DFFB / RFU, FOXP1 / Fold change vs veh, FOXP1 / RFU, CARD8 / Fold change vs veh, CARD8 / RFU, STRN3 / Fold change vs veh, STRN3 / RFU, ADK / Fold change vs veh, ADK / RFU, RASSF2 / Fold change vs veh, RASSF2 / RFU, WIPF1 / Fold change vs veh, WIPF1 / RFU, LARP1B / Fold change vs veh, LARP1B / RFU, RASA1 / Fold change vs veh, RASA1 / RFU, RB1 / Fold change vs veh, RB1 / RFU, PPFIA1 / Fold change vs veh, PPFIA1 / RFU, MAT2A / Fold change vs veh, MAT2A / RFU, CCT5 / Fold change vs veh, CCT5 / RFU, WDR92 / Fold change vs veh, WDR92 / RFU, CUX1 / Fold change vs veh, CUX1 / RFU, TTC7A / Fold change vs veh, TTC7A / RFU, TMEM135 / Fold change vs veh, TMEM135 / RFU, DEPTOR / Fold change vs veh, DEPTOR / RFU, CPM / Fold change vs veh, CPM / RFU, DNAJB6 / Fold change vs veh, DNAJB6 / RFU, CACNA2D3 / Fold change vs veh, CACNA2D3 / RFU, DTX4 / Fold change vs veh, DTX4 / RFU, TFCP2 / Fold change vs veh, TFCP2 / RFU, GMCL1 /// GMCL1P1 / Fold change vs veh, GMCL1 /// GMCL1P1 / RFU, AEBP2 / Fold change vs veh, AEBP2 / RFU, SNHG1 /// SNORD22 /// SNORD25 /// SNORD26 /// SNORD27 /// SNORD28 /// SNORD29 /// SNORD31 / Fold change vs veh, SNHG1 /// SNORD22 /// SNORD25 /// SNORD26 /// SNORD27 /// SNORD28 /// SNORD29 /// SNORD31 / Fold change (Aza/veh), C12orf56 (ProbeSet 11735607_a_at) / Fold change (ACY-1035/veh), C12orf56 (ProbeSet 11735607_a_at) / Fold change (Aza/veh), FGFR1OP (ProbeSet 11751329_s_at) / Fold change (ACY-1035/veh), FGFR1OP (ProbeSet 11751329_s_at) / Fold change (Aza/veh), VPS36 (ProbeSet 11739960_a_at) / Fold change (ACY-1035/veh), VPS36 (ProbeSet 11739960_a_at) / RFU SYPL1 (11715823_x_at) / Fold change /veh SYPL1 (11715823_x_at) / RFU IGFBP7 (11715501_s_at) / Fold change /veh IGFBP7 (11715501_s_at) / RFU REEP3 (11722064_at) / Fold change /veh REEP3 (11722064_at) / RFU IGLL1 (11728026_x_at) / Fold change /veh IGLL1 (11728026_x_at): dose or concentration left out as unconfirmed
Details: MV-4-11 cells, 48 hours

Question: For `Nc1ccc(-c2cccs2)cc1NC(=O)c1ccc2c(c1)cc(C1CC1)n2CCN1CCOCC1` [ACY-1035], which “RFU ACY1 (11761880_at)” value is on record?
Answer: Its value is 20.30 RFU.
